From PubChem BioAssay (NCI)
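Interpolation was linear, between the two tested concentrations surrounding the appropriate level; five concentrations were tested over 48 hours in 96-well plates. Abbreviation: GI50, concentration required for 50% inhibition of growth. TGI is the concentration that stops growth completely.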

Assays:
Assay in all cases: growth of human tumour cells (NCI), 48 h; in the data active means GI50 below about 0.43 µM; inactive means the rest
786-0 renal = test system: 786-0 renal
A498 renal = test system: A498 renal
A549 NSCLC = test system: A549 NSCLC
ACHN renal = test system: ACHN renal
BT-549 breast = test system: BT-549 breast
CCRF-CEM leukemia = test system: CCRF-CEM leukemia
COLO 205 colon = test system: COLO 205 colon
DU-145 prostate = test system: DU-145 prostate
HCC-2998 colon = test system: HCC-2998 colon
HCT-116 colon = test system: HCT-116 colon
HCT-15 colon = test system: HCT-15 colon
HL-60(TB) leukemia = test system: HL-60(TB) leukemia
HOP-62 NSCLC = test system: HOP-62 NSCLC
HOP-92 NSCLC = test system: HOP-92 NSCLC
HT29 colon = test system: HT29 colon
IGROV1 ovarian = test system: IGROV1 ovarian
K-562 leukemia = test system: K-562 leukemia
KM12 colon = test system: KM12 colon
LOX IMVI melanoma = test system: LOX IMVI melanoma
M14 melanoma = test system: M14 melanoma
MALME-3M melanoma = test system: MALME-3M melanoma
MCF7 breast = test system: MCF7 breast
MDA-MB-231 breast = test system: MDA-MB-231 breast
MDA-MB-435 = test system: MDA-MB-435
MOLT-4 leukemia = test system: MOLT-4 leukemia
NCI-H226 lung = test system: NCI-H226 lung
NCI-H23 lung = test system: NCI-H23 lung
NCI-H460 lung = test system: NCI-H460 lung
NCI-H522 lung = test system: NCI-H522 lung
NCI/ADR-RES ovarian = test system: NCI/ADR-RES ovarian
OVCAR-3 ovarian = test system: OVCAR-3 ovarian
OVCAR-4 ovarian = test system: OVCAR-4 ovarian
OVCAR-5 ovarian = test system: OVCAR-5 ovarian
OVCAR-8 ovarian = test system: OVCAR-8 ovarian
PC-3 prostate = test system: PC-3 prostate
RPMI-8226 leukemia = test system: RPMI-8226 leukemia
RXF 393 renal = test system: RXF 393 renal
SF-268 CNS = test system: SF-268 CNS
SF-295 CNS = test system: SF-295 CNS
SF-539 CNS = test system: SF-539 CNS
SK-MEL-2 melanoma = test system: SK-MEL-2 melanoma
SK-MEL-28 melanoma = test system: SK-MEL-28 melanoma
SK-MEL-5 melanoma = test system: SK-MEL-5 melanoma
SK-OV-3 ovarian = test system: SK-OV-3 ovarian
SN12C renal = test system: SN12C renal
SNB-19 CNS = test system: SNB-19 CNS
SNB-75 CNS = test system: SNB-75 CNS
SR leukemia = test system: SR leukemia
SW-620 colon = test system: SW-620 colon
T-47D breast = test system: T-47D breast
TK-10 renal = test system: TK-10 renal
U251 CNS = test system: U251 CNS
UACC-257 melanoma = test system: UACC-257 melanoma
UACC-62 melanoma = test system: UACC-62 melanoma
UO-31 renal = test system: UO-31 renal

COc1cc(-c2cncn2-c2ccc(-c3nc4ccc(F)cc4s3)cc2)ccc1F
52.2 µM: TGI (SNB-75 CNS)
47.7 µM: TGI (IGROV1 ovarian)
> 100 µM: TGI (786-0 renal) | TGI (A549 NSCLC) | TGI (ACHN renal) | TGI (CCRF-CEM leukemia) | TGI (COLO 205 colon) | TGI (HCC-2998 colon) | TGI (HCT-15 colon) | TGI (HOP-62 NSCLC) | TGI (HT29 colon) | TGI (K-562 leukemia) | TGI (KM12 colon) | TGI (LOX IMVI melanoma) | TGI (M14 melanoma) | TGI (MALME-3M melanoma) | TGI (MCF7 breast) | TGI (MDA-MB-231 breast) | TGI (MDA-MB-435) | TGI (MOLT-4 leukemia) | TGI (NCI-H226 lung) | TGI (NCI-H23 lung) | TGI (NCI/ADR-RES ovarian) | TGI (OVCAR-4 ovarian) | TGI (OVCAR-5 ovarian) | TGI (OVCAR-8 ovarian) | TGI (PC-3 prostate) | TGI (RPMI-8226 leukemia) | TGI (RXF 393 renal) | TGI (SF-268 CNS) | TGI (SF-295 CNS) | TGI (SF-539 CNS) | TGI (SK-MEL-2 melanoma) | TGI (SK-MEL-28 melanoma) | TGI (SK-MEL-5 melanoma) | TGI (SK-OV-3 ovarian) | TGI (SN12C renal) | TGI (SNB-19 CNS) | TGI (SR leukemia) | TGI (SW-620 colon) | TGI (T-47D breast) | TGI (TK-10 renal) | TGI (U251 CNS) | TGI (UACC-257 melanoma) | TGI (UACC-62 melanoma) | TGI (UO-31 renal)
38.7 µM: TGI (HCT-116 colon)
91.8 µM: TGI (HOP-92 NSCLC)
active: GI50 (A498 renal) 43.2 nM
20.7 µM: TGI (NCI-H460 lung)
73.3 µM: TGI (DU-145 prostate)
37.3 µM: TGI (OVCAR-3 ovarian)
16.9 µM: TGI (A498 renal)
79 µM: TGI (BT-549 breast)
37.2 µM: TGI (NCI-H522 lung)
7.37 µM: TGI (HL-60(TB) leukemia)
inactive: GI50 (786-0 renal) 36.1 µM | GI50 (A549 NSCLC) 12.3 µM | GI50 (ACHN renal) 29.1 µM | GI50 (BT-549 breast) 11.5 µM | GI50 (CCRF-CEM leukemia) 6.92 µM | GI50 (COLO 205 colon) 56.8 µM | GI50 (DU-145 prostate) 14.3 µM | GI50 (HCC-2998 colon) > 100 µM | GI50 (HCT-116 colon) 4.36 µM | GI50 (HCT-15 colon) 82.3 µM | GI50 (HL-60(TB) leukemia) 2500 nM | GI50 (HOP-62 NSCLC) 40.7 µM | GI50 (HOP-92 NSCLC) 5.47 µM | GI50 (HT29 colon) 10.8 µM | GI50 (IGROV1 ovarian) 15.4 µM | GI50 (K-562 leukemia) 3.93 µM | GI50 (KM12 colon) 6.4 µM | GI50 (LOX IMVI melanoma) 35.9 µM | GI50 (M14 melanoma) 33.4 µM | GI50 (MALME-3M melanoma) 11.1 µM | GI50 (MCF7 breast) 23.5 µM | GI50 (MDA-MB-231 breast) 32.2 µM | GI50 (MDA-MB-435) 17.1 µM | GI50 (MOLT-4 leukemia) 3.41 µM | GI50 (NCI-H226 lung) 49.3 µM | GI50 (NCI-H23 lung) 8.25 µM | GI50 (NCI-H460 lung) 5.7 µM | GI50 (NCI-H522 lung) 9.9 µM | GI50 (NCI/ADR-RES ovarian) 30.6 µM | GI50 (OVCAR-3 ovarian) 5.71 µM | GI50 (OVCAR-4 ovarian) 11.4 µM | GI50 (OVCAR-5 ovarian) > 100 µM | GI50 (OVCAR-8 ovarian) 15.2 µM | GI50 (PC-3 prostate) 3.47 µM | GI50 (RPMI-8226 leukemia) 4.11 µM | GI50 (RXF 393 renal) 13.5 µM | GI50 (SF-268 CNS) 31.2 µM | GI50 (SF-295 CNS) 12.7 µM | GI50 (SF-539 CNS) 75.9 µM | GI50 (SK-MEL-2 melanoma) 39.7 µM | GI50 (SK-MEL-28 melanoma) 35.1 µM | GI50 (SK-MEL-5 melanoma) 12.1 µM | GI50 (SK-OV-3 ovarian) > 100 µM | GI50 (SN12C renal) 31.9 µM | GI50 (SNB-19 CNS) > 100 µM | GI50 (SNB-75 CNS) 20.6 µM | GI50 (SR leukemia) 4.99 µM | GI50 (SW-620 colon) 7.81 µM | GI50 (T-47D breast) 7.98 µM | GI50 (TK-10 renal) 38.8 µM | GI50 (U251 CNS) 12.6 µM | GI50 (UACC-257 melanoma) 4.11 µM | GI50 (UACC-62 melanoma) 8.67 µM | GI50 (UO-31 renal) 16.5 µM
